{"source": "paper PMC10648877", "about": "“Novel Substituted Azoloazines with Anticoagulant Activity” (International Journal of Molecular Sciences, 2023)", "key": {"[1]": {"test_system": "platelet-poor plasma (PPP)", "test": "Ecarin clotting time in vitro", "type": "biochemical", "procedure": "The ecarin clotting time was designed for the determination of antithrombin anticoagulant activity in platelet-poor plasma. Venous blood was collected into a 15 mL Falcon type plastic tube with 3.8% sodium citrate solution (0.5 mL of sodium citrate per 5 mL of blood), centrifuged on a CM-6M centrifuge (Elmi, Riga, Latvia) at room temperature from 18 to 25 °C for 15 min at 3000 rpm (1200× g). The obtained plasma was withdrawn using an automatic pipette and transferred to a separate clean, dry plastic tube. After that, the obtained plasma was recentrifuged under the same conditions and the upper third of the plasma was taken for analysis.\nThe ecarin stock solution (STA-ECT, Stago, Düsseldorf, Germany) was prepared according to the manufacturer’s instructions and diluted to 4 units/mL with HEPES-buffered saline (0.2 M) containing 0.025 M calcium chloride.\nThe tested samples were investigated in the concentration range from 100 to 1 μM for IC50 determination.\nPrepared reagents and platelet-poor plasma were heated to 37 °C. The assay was performed on a Solar CGL2120 coagulometer (Belarus), adding 50 µL of the reagent ecarin to 100 µL of PPP and recording the clotting time.\n(§1) The calculation of EC50 (effective concentration that prolongs the time of clot formation by 50%) was performed using linear regression analysis."}, "[2]": {"test_system": "coagulograms of rats", "test": "Thrombin time after single intragastric administration, rats without hypercytokinemia", "type": "in vivo, rat", "details": "dabigatran etexilate 12 mg/kg", "procedure": "(§2) Distilled water was used as a solvent. In all experiments, control animals were injected with an equivalent volume of a vehicle. The reference drug dabigatran etexilate was administered to rats 2 h before the study at a 12 mg/kg dose (equivalent to the human dose, taking into account the interspecies conversion factor). Compound 5d was administered to rats 2 h before the study in a 5.5 mg/kg dose, equimolar to the dose of dabigatran etexilate.\n(§3) To stabilize the blood, a 3.8% aqueous solution of sodium citrate (pH 6.0) was used in a ratio of 9:1. Coagulogram parameters of platelet-poor plasma were measured with a SOLAR coagulometer according to the methods described above."}, "[3]": {"test_system": "coagulograms of rats", "test": "Prothrombin time after single intragastric administration, rats without hypercytokinemia", "type": "in vivo, rat", "details": "single intragastric dose, 2 h, dabigatran etexilate 12 mg/kg, 5d 5.5 mg/kg (equimolar)", "procedure": "(§4) Distilled water was used as a solvent. In all experiments, control animals were injected with an equivalent volume of a vehicle. The reference drug dabigatran etexilate was administered to rats 2 h before the study at a 12 mg/kg dose (equivalent to the human dose, taking into account the interspecies conversion factor).\n(§5) Coagulogram parameters of platelet-poor plasma were measured with a SOLAR coagulometer according to the methods described above."}, "[4]": {"test_system": "coagulograms of rats", "test": "Thrombin time after single intragastric administration, rats with hypercytokinemia (LPS)", "type": "in vivo, rat", "procedure": "as §2, §3\n(§6) Hypercytokinemia conditions were modeled by an intravenous injection of S. typhimurium LPS (Sigma Aldrich, St. Louis, MO, USA) at a final dose of 2 mg/kg into the tail vein of the rats 2 h before the administration of the substances. The evaluation of anticoagulant activity was conducted according to the methods described above."}, "[5]": {"test_system": "coagulograms of rats", "test": "APTT after single intragastric administration, rats with hypercytokinemia (LPS)", "type": "in vivo, rat", "details": "dabigatran etexilate 12 mg/kg", "procedure": "as §2, §3, §6"}, "[6]": {"test_system": "coagulograms of rats", "test": "Prothrombin time after single intragastric administration, rats with hypercytokinemia (LPS)", "type": "in vivo, rat", "procedure": "as §4, §5, §6"}, "[7]": {"test_system": "platelet-poor plasma (PPP)", "test": "Thrombin time (TT), rabbit blood coagulogram in vitro", "type": "biochemical"}, "[8]": {"test_system": "platelet-poor plasma (PPP)", "test": "Prothrombin time (PT), rabbit blood coagulogram in vitro", "details": "100 μM", "description": "The study was performed on platelet-poor plasma (PPP) stabilized with a 3.8% sodium citrate solution in a ratio of 9:1 according to the method described in [34]. Dabigatran etexilate (Boehringer Ingelheim Pharma GmbH and Co., Ingelheim am Rhein, Germany) was used as the reference drug. Test compounds and the reference drug were evaluated at a concentration of 100 μM. Effect on rabbit blood coagulograms in vitro was determined chronometrically with a SOLAR hemocoagulometer (Minsk, Belarus) using commercial kits (Technology-Standard, Barnaul, Russia) as per the manufacturer’s instructions. The following parameters were determined: activated partial thromboplastin time, thrombin time, and prothrombin time."}, "[9]": {"test_system": "LPS-treated PPP", "test": "Thrombin time, rabbit blood treated with LPS in vitro (hypercytokinemia)", "type": "biochemical", "details": "for Δ % of Thrombin Time Prolongation Relative To Control + LPS: with LPS", "procedure": "(§7) Hypercytokinemia conditions were modeled by incubation of whole blood with S. typhimurium LPS (Sigma Aldrich, St. Louis, MO, USA) at a final concentration of 20 ng/mL and subsequent preparation of PPP.\nas §1"}, "[10]": {"test_system": "coagulograms of rats", "test": "APTT after single intragastric administration, rats without hypercytokinemia", "type": "in vivo, rat", "details": "dabigatran etexilate 12 mg/kg", "procedure": "as §2, §3"}, "[11]": {"test_system": "LPS-treated PPP", "test": "Prothrombin time, rabbit blood treated with LPS in vitro (hypercytokinemia)", "type": "biochemical", "details": "100 μM", "procedure": "as §7"}, "[12]": {"test_system": "platelet-poor plasma (PPP)", "test": "Activated partial thromboplastin time (APTT), rabbit blood coagulogram in vitro", "type": "biochemical", "details": "100 μM", "description": "Test compounds and the reference drug were evaluated at a concentration of 100 μM. Effect on rabbit blood coagulograms in vitro was determined chronometrically with a SOLAR hemocoagulometer (Minsk, Belarus) using commercial kits (Technology-Standard, Barnaul, Russia) as per the manufacturer’s instructions. The following parameters were determined: activated partial thromboplastin time, thrombin time, and prothrombin time."}, "[13]": {"test_system": "LPS-treated PPP", "test": "APTT, rabbit blood treated with LPS in vitro (hypercytokinemia)", "type": "biochemical", "details": "rabbit blood treated with LPS in vitro, 100 μM", "procedure": "as §7"}, "[14]": {"details": "intact rats, 2 h after intragastric administration, 5d 5.5 mg/kg"}, "[15]": {"details": "rats without hypercytokinemia, single intragastric dose, 2 h, 5d 5.5 mg/kg (equimolar)"}, "[16]": {"details": "rats with hypercytokinemia (LPS 2 mg/kg i.v.), single intragastric dose, 2 h, dabigatran etexilate 12 mg/kg, 5d 5.5 mg/kg"}}, "note": "pEC50: −log10 of the molar value. Where “and” joins values, the source holds several entries; their conditions need not be identical. Equal entries are not always repeated."}
{"compound": "C1=C(c2cccs2)n2ncnc2NC1c1cccs1", "note": "(centres unmarked) [Compound 5d, 7,5-Di(2-thienyl)-4,5-dihydro-[1,2,4]triazolo[1,5-a]pyrimidine];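 as to increase of APTT relative to the control: clotting time read chronometrically on a hemocoagulometer with commercial reagent kits, one of several coagulogram parameters alongside thrombin and prothrombin time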", "values": [{"measurement": "ecarin clotting time", "setting": "[1]; 1 μM", "value": 40.2, "unit": "s"}, {"measurement": "ecarin clotting time", "setting": "[1]; 10 μM", "value": 50.5, "unit": "s"}, {"measurement": "ecarin clotting time", "setting": "[1]; 100 μM", "value": 81.3, "unit": "s"}, {"measurement": "pEC50", "setting": "[1]; concentration range 100 to 1 μM", "value": 4.75}, {"measurement": "increase of thrombin time relative to intact control", "setting": "[2]; [14]", "value": 5.6, "unit": "times"}, {"measurement": "TT", "setting": "[2]; [15]", "value": "325.3 ± 5.1", "unit": "s"}, {"measurement": "PT", "setting": "[3]", "value": "24.5 ± 1.1", "unit": "s"}, {"measurement": "increase of thrombin time in relation to the LPS control group", "setting": "[4]; LPS-injected rats, dabigatran etexilate 12 mg/kg, 5d 5.5 mg/kg intragastric", "value": 14.5, "unit": "times"}, {"measurement": "TT, s", "setting": "[4]; [16]", "value": "640.3 ± 7.4 ^#$ s"}, {"measurement": "antithrombin effect under systemic inflammation reaction versus its absence", "setting": "[4]; rats, single intragastric administration", "value": "twice as pronounced"}, {"measurement": "prolongation of APTT in relation to the LPS control group", "setting": "[5]; LPS-injected rats, 5d 5.5 mg/kg intragastric", "value": 1.6, "unit": "times"}, {"measurement": "APTT", "setting": "[5]; rats with hypercytokinemia (LPS 2 mg/kg i.v.), single intragastric dose, 2 h, 5d 5.5 mg/kg", "value": "28.7 ± 1.0", "unit": "s"}, {"measurement": "PT", "setting": "[6]; [16]", "value": "26.4 ± 1.4", "unit": "s"}, {"measurement": "effect on prothrombin time", "setting": "[6]; rats with systemic inflammatory reaction (LPS)", "value": "neither the test compound nor dabigatran etexilate had an effect"}, {"measurement": "Δ% of Thrombin Time Prolongation Relative to Control", "setting": "[7]; 1 μM, without LPS", "value": "46.5% and 46.5 ± 6.7 %"}, {"measurement": "Δ% of Thrombin Time Prolongation Relative to Control", "setting": "[7]; 5 μM, without LPS", "value": "194.1% and 194.1 ± 10.0 %"}, {"measurement": "Δ% of Thrombin Time Prolongation Relative to Control", "setting": "[7]; 10 μM, without LPS", "value": "467.1% and 467.1 ± 14.4 %"}, {"measurement": "TT", "setting": "[7]; rabbit blood in vitro, 100 μM, M ± m, n = 6", "value": "154.43 ± 11.14", "unit": "s"}, {"measurement": "prolongation of thrombin time exceeding dabigatran etexilate", "setting": "[7]; rabbit blood in vitro, 100 μM, versus reference drug", "value": 2.2, "unit": "times"}, {"measurement": "EC50", "setting": "[7]; without LPS, concentration that prolongs clot formation time by 50%, read-out: EC50, μM (thrombin time prolongation)", "value": "1.25 µM and 1.3 µM"}, {"measurement": "effect on prothrombin time", "setting": "[8]", "value": "did not affect the prothrombin time"}, {"measurement": "PT", "setting": "[8]; M ± m, n = 6", "value": "14.08 ± 0.4", "unit": "s"}, {"measurement": "Δ % of Thrombin Time Prolongation Relative To Control + LPS", "setting": "[9]; 1 μM", "value": "56.3% and 56.3 ± 1.1 %"}, {"measurement": "Δ % of Thrombin Time Prolongation Relative To Control + LPS", "setting": "[9]; 5 μM", "value": "234.1% and 234.1 ± 4.2 ^#$ %"}, {"measurement": "Δ % of Thrombin Time Prolongation Relative To Control + LPS", "setting": "[9]; 10 μM", "value": "354.1% and 354.1 ± 6.5 ^#$ %"}, {"measurement": "prolongation of thrombin time relative to LPS-treated blood control", "setting": "[9]; LPS-treated rabbit blood in vitro, 100 μM", "value": 17.0, "unit": "times"}, {"measurement": "prolongation of APTT compared to the control", "setting": "[10]; [14]", "value": 1.5, "unit": "times"}, {"measurement": "APTT", "setting": "[10]; [15]", "value": "59.2 ± 8.3", "unit": "s"}, {"measurement": "PT", "setting": "[11]", "value": "14.08 ± 0.4", "unit": "s"}, {"measurement": "increase of APTT relative to the control", "setting": "[12]", "value": 1.3, "unit": "times"}, {"measurement": "APTT", "setting": "[12]; M ± m, n = 6", "value": "61.78 ± 4.58", "unit": "s"}, {"measurement": "APTT", "setting": "[13]", "value": "61.78 ± 4.58", "unit": "s"}]}
